# According to US20220251218A1, “PHARMACEUTICAL COMBINATION AND METHOD FOR OVERCOMING IMMUNE SUPPRESSION OR STIMULATING IMMUNE RESPONSE AGAINST CANCER” (GNT BIOTECH & MEDICALS CORPORATION, priority 2021, published 2022):
# Values joined by “and” are separate entries in the source; they are usually repeats but may differ in a detail not shown here. Identical values can stand only once. Like-named read-outs stand apart in the source and are kept apart here.
# Tests used:
# CT26 tumor = settings: for ORR (%): 3 days after end of treatment; for Relapse (recurrence): tumor growth at least 5 fold in mice with CR or PR; for CR / PD / PR: number of mice
# Procedure: Anti-Colorectal Cancer Activity in Animal Models. Animal study was approved and overseen by The Taipei Medical University Institutional Animal Care and Use Committee (TMU IACUC, NO: LAC-2020-0103, LAC-2019-0644). Six- to eight-week-old male Balb/c mice (National Laboratory Animal Center, Taiwan) were used for all animal experiments. CT26 cell line was purchased from ATCC. CT26 tumor cell lines were grown in RPMI-1640 supplemented with 10% (vol/vol) FBS at 37° C., 5% CO2. Tumors were established by s.c. injection of 1×10^6 CT26 cells with Matrigel (354248, Corning®) into the left flank of mice, and growth determined by measuring two perpendicular diameters. Tumors were allowed to grow for 8-12 days (tumor size about 110-250 mm^3) before randomization and treatment. Animals were euthanized when tumors reached more than 3000 mm^3 in volume. An anti-IgG antibody (BE0089, Lot #716719J3, Bio X Cell), anti-PD-1 antibody (BE0146, Lot #717918D1, Lot #735019J3, Lot #780120J3, Lot #73501901, Bio X Cell), anti-PD-L1 antibody (BE0101, Lot #720619F1, Bio X Cell) and anti-CTLA-4 antibody (BE0164, Lot #702418A2B, Bio X Cell) were administered i.p. at 2.5 mg/kg twice a week for three weeks. All antibodies were diluted to appropriate concentrations in 100 μL of sterile PBS (pH 7.4, Invitrogen Life Technologies). Axitinib (HY-10065, 30 mg/kg, po daily, MedChemExpress USA), Lenvatinib (HY-10981, 10 mg/kg, po daily, MedChemExpress USA), Olaparib (HY-10162, 50 mg/kg, po daily, MedChemExpress USA), Ibrutinib (HY-10997, 6 mg/kg, po daily, MedChemExpress USA), Cabozantinib (HY-13016, 30 mg/kg, po daily, MedChemExpress USA), Regorafenib (HY-1031, 30 mg/kg, po daily, MedChemExpress USA), RMC-4550 (HY-116009, 30 mg/kg, po daily, MedChemExpress USA), Sitravatinib (HY-16961, 20 mg/kg, po daily, MedChemExpress USA), Entinostat (HY-12163, 20 mg/kg, po q2d, MedChemExpress USA), Vorinostat (HY-10221, 150 mg/kg, po daily, MedChemExpress USA), Chidamide-k30 or Chidamide-HCl salt (50 mg/kg, po daily, produced from GNTbm, Taipei, Taiwan), Celecoxib (50 mg/kg, po daily, capsule/Celebrex®, Pfizer Pharmaceuticals LLC) were given for 16 days. Axitinib, Lenvatinib, Olaparib, Ibrutinib, Cabozantinib, Regorafenib, Entinostat, Vorinostat, RMC-4550, Sitravatinib and Celecoxib were dissolved in DMSO and diluted in PBS before administration. Chidamide-k30 and Chidamide-HCl salt were dissolved in water. Animals were euthanized when tumors reached more than 3000 mm^3 in volume. The anti-cancer activity was measured from the start of the treatment until the tumor volume reached 3,000 mm^3. Tumor volume was calculated as length×width^2×0.5. In this study, we defined Complete Response (CR, <0.5 time tumor growth in the tumor bearing mice at three days after the end of treatment); Partial Response (PR, tumor size ≥0.5 time tumor growth, but <1 times tumor growth in the tumor bearing mice at three days after the end of treatment); Stable Disease (SD, tumor size ≥1 time tumor growth, but <5 times tumor growth in the tumor bearing mice at three days after the end of treatment); Progressive Disease (PD, tumor size ≥5 times tumor growth in tumor bearing mice at three days after the end of treatment) for the evaluation of treatment efficacy. The recurrence was defined as when having tumor growth at least 5 fold in mice with CR or PR response after first tumor assessment.
# Survival Rate in Animal Models. After tumor assessment the tumor volume of the mice was measured once every three or four days (twice/week). The tumor-bearing mice were regarded as dead when the tumor volume reached 3,000 mm^3. All treatment groups were recorded and analyzed.
# CT26 cells = assay: Tumor rechallenge with CT26 cells in mice with PR/CR response (immunity); type: in vivo, Balb/c mice; settings: for Immunity (rechallenge): mice resistant to CT26 re-challenge
# Procedure: Tumor Rechallenges in Animal Models. All mice with PR/CR response after treatment were rechallenged with CT26 cells on the contralateral side (please see FIG. 6(F)). The rechallenge with CT26 was performed on day 34±2, which was 7 days […] after first tumor assessment (day 27±2), with injection of 5×10^6 CT26 cells per mouse. After rechallenge with CT26 cells, tumors were allowed to grow for another 7 days (day 41±2) to determine the baseline as 1 fold. After further 10 days (day 51±2), the tumor growth was evaluated for the rechallenge. If two of the following criteria are met, the response will be considered as rechallenge-induced recurrence/relapse: first, the tumor size over 2 folds when compared to that of baseline on day 41±2; second, the tumor volume on day 51±2 was over 300 mm^3. Relapse happens when immunity is not sufficiently activated. If the tumor growth is inhibited, it means the immunity is activated.
# We were interested in researching more powerful regimens to regulate the TME for boosting the immune response rate. First, we were to evaluate the Lenvatinib and Lenvatinib combined with anti-PD-1 Ab in CT26-bearing mice model. […] CT26 tumor-bearing mice were euthanized when tumor volume reached 3000 mm^3 after tumor implantation. […] Next, we were interested to evaluate immunity stimulated by different treatments in a rechallenge experiment as outlined in FIG. 6(F). The mice with CR or PR went into a wash-out stage of 7 days (until day 34±2) without any further treatment. Then rechallenge was performed with the same kind of cancer cells (CT26; 5×10^6) inoculated on the opposite flank for about another 7 days (day 41±2) and then the tumor volume would be determined as baseline (1 fold). The rechallenge tumor was allowed to grow for 10 days, and then assessed to evaluate the tumor growth (day 51±2). The immunity was defined as negative, when it met two conditions: the tumor volume was over 300 mm^3, or the tumor size was over 2 fold when compared to baseline. […] If the immune memory was not induced or not fully activated, resulting in the growth of tumors inoculated during the rechallenge (tumor recurrence), then the immunity would be defined as negative. […] The rechallenge experiment was used to re-confirm whether the regimens have stimulated the immune system's ability to activate immune memory directly or indirectly.
# [1] = FIG. 9, initial tumor volume 251 mm^3
Compound,Survival Rate (%) (CT26 tumor; FIG. 6),"ORR (%) (CT26 tumor; FIG. 6, initial tumor volume 190 mm^3)",Relapse (recurrence) (CT26 tumor; FIG. 6),Survival Rate (%) (CT26 tumor; FIG. 9),ORR (%) (CT26 tumor; [1]),Relapse (recurrence) (CT26 tumor; FIG. 9),"body weight (CT26 tumor; mouse, in vivo)",CR (CT26 tumor; FIG. 6),PD (CT26 tumor; FIG. 6),PR (CT26 tumor; FIG. 6),CR (CT26 tumor; FIG. 9),PD (CT26 tumor; FIG. 9),PR (CT26 tumor; FIG. 9),"tumor recurrence after the rechallenge (CT26 cells; FIG. 6(G), mice that achieved CR/PR)","Immunity (rechallenge) (CT26 cells; FIG. 6, overall immune memory)",Immunity (rechallenge) (CT26 cells; FIG. 9)
COc1cc2nccc(Oc3ccc(NC(=O)NC4CC4)c(Cl)c3)c2cc1C(N)=O [Lenvatinib],10%,30%,67%,0%,12.5% and 13%,100%,mildly reduced,1,2,2,0,2,1,33%,67%,
COc1cc2nccc(Oc3ccc(NC(=O)C4(C(=O)Nc5ccc(F)cc5)CC4)cc3)c2cc1OC [Cabozantinib],,,,14%,43%,67%,,,,,3,2,0,,,100%
CNC(=O)c1cc(Oc2ccc(NC(=O)Nc3ccc(Cl)c(C(F)(F)F)c3)c(F)c2)ccn1 [Regorafenib],,,,13%,25%,50%,,,,,2,2,0,,,50%
CNC(=O)c1ccccc1Sc1ccc2c(/C=C/c3ccccn3)n[nH]c2c1 [Axitinib],,,,38%,37.5% and 38%,0%,,,,,3,4,0,,,
